Laboratory results: US20080200655A1, “Protein Formulations Containing Sorbitol” (Wyeth, priority 2007, published 2008)

Legend:
MAB-002 = assay: Five freeze-thaw cycles of MAB-002 in formulations with different polyols, HMW species formation; type: physicochemical; settings: MAB-002 5 mg/ml, 10 mM histidine pH 6.0, various polyol concentrations
Experimental: This experiment compared mannitol to other polyols with different maximum solubilities with respect to their abilities to induce aggregation during freeze-thaw. A monoclonal antibody referred to as MAB-002 was dialyzed into different liquid formulations containing mannitol, galactitol, or sorbitol, respectively, at various concentrations. Each formulation also contained 10 mM histidine, pH 6.0. The final concentration of MAB-002 in each of the liquid formulations was 5 mg/ml. Each formulation was then subject to five cycles of freeze-thaw, and monitored for HMW species formation. Changes in the percentage of HMW species was plotted against the polyol concentrations in FIG. 3.

[1] = cited from earlier work
[2] = system: four monoclonal antibodies (mAb2, mAb3, mAb4, mAb5), a cytokine and a fusion protein; assay: Five freeze-thaw cycles of six proteins in 250 mM mannitol or sorbitol, HMW species formation; type: physicochemical; settings: each protein 1 mg/ml, 10 mM histidine pH 6.0, 250 mM polyol
Experimental: Six different proteins including four different monoclonal antibodies (referred to as mAb2, mAb3, mAb4, and mAb5), a cytokine and a fusion protein were dialyzed into 10 mM histidine, pH 6.0, and 250 mM mannitol or sorbitol. The final concentration of each protein was 1 mg/ml. The formulations were then subject to five cycles of freeze-thaw as described above, and monitored for HMW species formation.

[3] = Sub ambient DSC scan of formulation during cooling and warming; type: physicochemical; settings: formulation containing the polyol

Compound	Induction of aggregation (change in percentage of HMW species) (MAB-002)	Maximum solubility [1]	Protein aggregation (HMW species formation) [2]	Crystallization during cooling and warming [3]
OC[C@@H](O)[C@H](O)[C@H](O)[C@@H](O)CO [galactitol]	induced aggregation at low concentrations and at a faster rate compared to mannitol	180 mM		
OC[C@@H](O)[C@@H](O)[C@H](O)[C@H](O)CO [mannitol]		1000 mM	considerably more protein aggregation	
OC[C@@H](O)[C@@H](O)[C@H](O)[C@@H](O)CO [sorbitol]	did not induce aggregation significantly compared to mannitol	4500 mM	suppresses aggregation of multiple proteins	no crystallization occurred
